Laboratory results reported in patent publication US7354611B1, “Fecundity-promoting supplement for the insidious flower bug reared on artificial diet” (The United States of America as represented by the …, priority 2003, dated 2008).

Test system: Orius insidiosus
Assay: Orius insidiosus fecundity (oviposition) bioassay: adults fed artificial diet with or without supplement, cumulative eggs laid/female counted on green bean
Format: in vivo
Details: Test 2
Method: Newly emerged adults of Orius insidiosus (<24 hour eclosion) were obtained from a commercial producer of beneficial insects (Entomos, Gainesville, Fla.). The insects were placed on the experimental diets on the third day after eclosion. Each diet treatment consisted of six females and four males in a 100-ml plant tissue culture jar (Sigma, St. Louis, Mo.) with four jars per treatment. Each jar contained one paraffin-encapsulated water dome (50 μl), two artificial diet domes (50 μl), one 7-cm section of green bean pod for oviposition, and three crumpled strips of wax paper (5 mm×80 mm) as substrates for the insects to crawl on. Artificial diet jars contained only artificial diet. Experimental diet jars contained artificial diet plus a supplement. Plodia egg (standard) jars each contained approximately 75 Ploida interpunctella eggs (approximately 3 mg) in place of diet. Although eggs from Euphestia kuehniella are generally used by commercial producers, eggs from P. interpunctella were used because O. insidiosus feeds readily on their eggs. Green beans were removed every other day and examined under a microscope to count eggs and then replaced with a fresh green bean section and mortality was also recorded within each jar. Plodia eggs and domes of water and diet were replaced on the same days that the green beans were removed for counting eggs. The insects were held in a growth chamber at about 25.50±1° C., with approximately 75±5% relative humidity, and a photoperiod of 15:9 (light:dark) hours. The experiments were carried out until the females in all treatments ceased oviposition, approximately 28 days. Diets were prepared under aseptic conditions in a clean room and encapsulated in Parafilm using a diet encapsulation apparatus as described in Ferkovich et al. (BioControl, Volume 45, 401-413, 2000).
The artificial diet was developed for rearing Orius sauteri (Weiru and Ren, 1989, supra), and consisted of approximately 4.0 grams brewers yeast, 0.4 grams sucrose, 2.1 grams soy protein acid hydrolysate, 0.046 grams of 99% palmitic acid (all from Sigma, St. Louis, Mo.), 0.5 grams chicken egg yolk, and 1.0 gram honey in 12 ml distilled water. Palmitic acid was mixed with the egg yolk component before adding it to the diet.
Two tests were conducted. In the first test, artificial diet was compared with the experimental diets which were composed of artificial diet supplemented with homogenized Plodia eggs, and protein and lipid extracts from Plodia eggs as described above. Each experimental diet was compared against the control artificial diet in an independent experiment on different dates. In the second test, any of the statistically significant experimental diets from the first test were then simultaneously compared with the experimental diets containing non-insect supplements.
Each treatment in both tests was replicated four times with 6 females and 4 males/replication. The cumulative number of eggs laid/female on artificial diet and on experimental diet were calculated relative to the percent eggs laid/female on Plodia eggs (standard); thus, mean ±S.E.=[#eggs laid per female on either artificial diet or experimental diet divided by # eggs laid per female on Plodia eggs]×100, n=4. The egg counts were adjusted for mortality. The egg counts per female were calculated for each replication. Data was analyzed by ANOVA using StatMost Software (Dataxiom Software Inc.). […]

[1] = Bovine Serum Albumin 83.3 mg/ml diet
[2] = Bovine Serum Albumin 166.7 mg/ml diet

## Bovine Serum Albumin: Bovine Serum albumin, Fraction V powder, Sigma
[1]
  % of Plodia egg Standard ± SE: 51.3 ± 4.1%
  Mean no. eggs/female ± SE: 19.7 ± 1.6 eggs/female
[2]
  % of Plodia egg Standard ± SE: 64.9 ± 4.2%
  Mean no. eggs/female ± SE: 24.9 ± 1.6 eggs/female
Versus artificial diet (Table 2)
  effect on cumulative mean number of egg oviposited/female: significantly increased
